The supplement of paper PMC10307832

Tests used:
Assay in all cases: relative viability (nuclei count vs DMSO), 5 days (fraction); higher = more cells survive
[1] = compound: N[C@@H]1CCCN(c2c(/C=C3\SC(=O)NC3=O)cccc2-c2ccccc2)C1 [AZD1208] + CS(=O)(=O)CCNCc1ccc(-c2ccc3ncnc(Nc4ccc(OCc5cccc(F)c5)c(Cl)c4)c3c2)o1 [Lapatinib] (partner 2 µM)
Summary of the method: (§1)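 Cells from lung cancer lines were seeded into 1536-well plates and, one day later, dosed by pin tool. Treatments were either a single drug or a fixed dose of an anchor drug with five library-drug doses (not always all listed) in √10 steps. After 5 days, nuclei were stained in a one-step fixation (final 0.05% Triton X-100, 1% formaldehyde, 1 ug/ml Hoechst) and counted on 4× images, and relative viability is the treated-to-vehicle nuclei ratio, as the median of duplicate plates.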

[2] = compound: CN1CCN(CC1)C2=CC(=C(C=C2)NC3=NC(=C(S3)C(=O)C4=C(C=CC=C4Cl)Cl)N)OC [XMD14-99] + O=C(CCCCCCC(=O)Nc1ccccc1)NO [Vorinostat] (partner 1 µM)
Summary of the method: as §1

[3] = compound: N[C@@H]1CCCN(c2c(/C=C3\SC(=O)NC3=O)cccc2-c2ccccc2)C1 [AZD1208] + O=C(CCCCCCC(=O)Nc1ccccc1)NO [Vorinostat] (partner 1 µM)
Summary of the method: as §1

[4] = compound: CN1CCN(CC1)C2=CC(=C(C=C2)NC3=NC(=C(S3)C(=O)C4=C(C=CC=C4Cl)Cl)N)OC [XMD14-99] + N=C(N)NC(=N)NCCc1ccccc1 [Phenformin] (partner 250 µM)
Summary of the method: as §1

EPLC-272H
relative viability ([1]; first compound 0.08 µM): 0.987 | relative viability ([1]; first compound 0.253 µM): 0.866 | relative viability ([1]; first compound 0.8 µM): 0.841 | relative viability ([1]; first compound 2.53 µM): 0.825 | relative viability ([1]; first compound 8 µM): 0.717 | relative viability ([2]; first compound 0.08 µM): 0.476 | relative viability ([2]; first compound 0.8 µM): 0.399 | relative viability ([2]; first compound 2.53 µM): 0.401 | relative viability ([2]; first compound 8 µM): 0.419 | relative viability ([3]; first compound 0.08 µM): 0.405 | relative viability ([3]; first compound 0.253 µM): 0.505 | relative viability ([3]; first compound 0.8 µM): 0.38 | relative viability ([3]; first compound 2.53 µM): 0.333 | relative viability ([3]; first compound 8 µM): 0.443 | relative viability ([4]; first compound 0.08 µM): 0.284 | relative viability ([4]; first compound 0.8 µM): 0.256 | relative viability ([4]; first compound 2.53 µM): 0.302 | relative viability ([4]; first compound 8 µM): 0.347
